Test results taken from patent US20240399142A1, “Methods Of Using Alternating Electric Fields And Checkpoint Inhibitors” (NOVOCURE GMBH, priority 2023, published 2024).

Test: LUNAR study safety: adverse events per CTCAE version 4.03, safety population
Format: in vivo, human
[1] = Grade 5, nervous system disorders
[2] = Grade 5, renal and urinary disorders
[3] = Grade 5, respiratory, thoracic, and mediastinal disorders
[4] = Grade 5, skin and subcutaneous tissue disorders

Protocol: Safety and treatment data were compiled from all patients who received any study therapy and were analyzed according to the actual treatment received. Analyses were performed using SAS software, version 9.4 (SAS Institute).

Q: Which results are given for `CC(=O)O[C@@]12CO[C@@H]1C[C@H](O)[C@@]1(C)C(=O)[C@H](O)C3=C(C)[C@@H](OC(=O)[C@H](O)[C@@H](NC(=O)OC(C)(C)C)c4ccccc4)C[C@@](O)([C@@H](OC(=O)c4ccccc4)[C@H]21)C3(C)C` [Docetaxel, docetaxel]?
A: Fatigue (Grade 5): 0 no. (%); Febrile neutropenia (Grade 5): 0 no. (%); Femoral neck fracture (Grade 5): 0 no. (%); Forced expiratory volume decreased (Grade 5): 0 no. (%); Gastroenteritis norovirus (Grade 5): 0 no. (%); Gastroenteritis salmonella (Grade 5): 0 no. (%); General physical health deterioration (Grade 5): 0 no. (%); Hematochezia (Grade 5): 0 no. (%); Hepatic enzyme increased (Grade 5): 0 no. (%); Hip fracture (Grade 5): 0 no. (%); Hypercalcemia (Grade 5): 0 no. (%); Hyperglycemia (Grade 5): 0 no. (%); Hyperkalaemia (Grade 5): 0 no. (%); Hypertriglyceridaemia (Grade 5): 0 no. (%); Hypoalbuminemia (Grade 5): 0 no. (%); Hypocalcaemia (Grade 5): 0 no. (%); Hypokalemia (Grade 5): 0 no. (%); Hyponatremia (Grade 5): 0 no. (%); Ileus (Grade 5): 0 no. (%); Infection (Grade 5): 0 no. (%); Intestinal dilatation (Grade 5): 0 no. (%); Intestinal hemorrhage (Grade 5): 0 no. (%); Intestinal perforation (Grade 5): 0 no. (%); Large intestine perforation (Grade 5): 0 no. (%); Leukopenia (Grade 5): 0 no. (%); Liver disorder (Grade 5): 0 no. (%); Localized oedema (Grade 5): 0 no. (%); Lung abscess (Grade 5): 0 no. (%); Lymphocyte count decreased (Grade 5): 0 no. (%); Lymphopenia (Grade 5): 0 no. (%); Malignant ascites (Grade 5): 0 no. (%); Malignant pleural effusion (Grade 5): 0 no. (%); Malnutrition (Grade 5): 0 no. (%); Metastases to bone (Grade 5): 0 no. (%); Metastases to central nervous system (Grade 5): 0 no. (%); Metastases to meninges (Grade 5): 0 no. (%); Mouth ulceration (Grade 5): 0 no. (%); Mucosal inflammation (Grade 5): 0 no. (%); Multiple organ dysfunction syndrome (Grade 5): 0 no. (%); Muscular weakness (Grade 5): 0 no. (%); Myalgia (Grade 5): 0 no. (%); Myocardial infarction (Grade 5): 0 no. (%); Nausea (Grade 5): 0 no. (%); Neck pain (Grade 5): 0 no. (%); Neutropenia (Grade 5): 0 no. (%); Neutrophil count decreased (Grade 5): 0 no. (%); Non-cardiac chest pain (Grade 5): 0 no. (%); Oedema peripheral (Grade 5): 0 no. (%); Oral candidiasis (Grade 5): 0 no. (%); Pancreatic failure (Grade 5): 0 no. (%); Pancreatitis (Grade 5): 0 no. (%); Pericardial effusion (Grade 5): 0 no. (%); Peripheral sensory (Grade 5): 0 no. (%); Platelet count decreased (Grade 5): 0 no. (%); Pneumonia (Grade 5): 0 no. (%); Pneumonia pseudomonal (Grade 5): 0 no. (%); Pneumonia staphylococcal (Grade 5): 0 no. (%); Pyelonephritis (Grade 5): 0 no. (%); Pyopneumothorax (Grade 5): 0 no. (%); Pyrexia (Grade 5): 0 no. (%); Refeeding syndrome (Grade 5): 0 no. (%); Respiratory tract infection (Grade 5): 0 no. (%); Right ventricular failure (Grade 5): 0 no. (%); Sepsis (Grade 5): 0 no. (%); Septic shock (Grade 5): 0 no. (%); Skin infection (Grade 5): 0 no. (%); Stomatitis (Grade 5): 0 no. (%); Subileus (Grade 5): 0 no. (%); Thrombocytopenia (Grade 5): 0 no. (%); Thyroiditis subacute (Grade 5): 0 no. (%); Tumor pain (Grade 5): 0 no. (%); Upper respiratory tract infection (Grade 5): 0 no. (%); Urinary tract infection (Grade 5): 0 no. (%); Urosepsis (Grade 5): 0 no. (%); Vomiting (Grade 5): 0 no. (%); Weight decreased (Grade 5): 0 no. (%); White blood cell count decreased (Grade 5): 0 no. (%); Brain oedema [1]: 0 no. (%); Cauda equina syndrome [1]: 0 no. (%); Dysarthria [1]: 0 no. (%); Hemiparesis [1]: 0 no. (%); Motor dysfunction [1]: 0 no. (%); Nervous system disorder [1]: 0 no. (%); Neurologic neglect syndrome [1]: 0 no. (%); Peripheral sensorimotor neuropathy [1]: 0 no. (%); Quadriparesis [1]: 0 no. (%); Seizure [1]: 0 no. (%); Syncope [1]: 0 no. (%); Vocal cord paralysis [1]: 0 no. (%); Anxiety (Grade 5, psychiatric disorders): 0 no. (%); Confusional state (Grade 5, psychiatric disorders): 0 no. (%); Mental status changes (Grade 5, psychiatric disorders): 0 no. (%); Acute kidney injury [2]: 0 no. (%); Urinary retention [2]: 0 no. (%); Acute respiratory failure [3]: 2 (2.9) no. (%); Atelectasis [3]: 0 no. (%); Bronchial obstruction [3]: 0 no. (%); Bronchopleural fistula [3]: 0 no. (%); Chronic obstructive pulmonary disease [3]: 0 no. (%); Cough [3]: 0 no. (%); Dyspnoea [3]: 0 no. (%); Esophago-bronchial fistula [3]: 0 no. (%); Hemoptysis [3]: 0 no. (%); Hypoxia [3]: 0 no. (%); Interstitial lung disease [3]: 0 no. (%); Pleural effusion [3]: 0 no. (%); Pneumonia aspiration [3]: 0 no. (%); Pneumonitis [3]: 0 no. (%); Pulmonary embolism [3]: 0 no. (%); Pulmonary hemorrhage [3]: 0 no. (%); Respiratory failure [3]: 1 (1.5) no. (%); Alopecia [4]: 0 no. (%); Dermatitis exfoliative [4]: 0 no. (%); Pruritus [4]: 0 no. (%); Rash [4]: 0 no. (%); Rash erythematous [4]: 0 no. (%); Rash maculopapular [4]: 0 no. (%); Skin erosion [4]: 0 no. (%); Skin reaction [4]: 0 no. (%); Skin toxicity [4]: 0 no. (%); Deep vein thrombosis (Grade 5, vascular disorders): 0 no. (%); Embolism (Grade 5, vascular disorders): 0 no. (%); Hypertension (Grade 5, vascular disorders): 0 no. (%); Jugular vein thrombosis (Grade 5, vascular disorders): 0 no. (%); Peripheral arterial occlusive disease (Grade 5, vascular disorders): 0 no. (%); Vena cava embolism (Grade 5, vascular disorders): 0 no. (%); Anemia (Grade ≥3): 8 (11.8) no. (%); Any adverse event (Grade ≥3): 43 (63.2) no. (%); Neutropenia (Grade ≥3): 11 (16.2) no. (%); COVID-19 pneumonia (human, in vivo): 0 no. (%); Herpes zoster (human, in vivo): 0 no. (%); Adverse event leading to death (human, in vivo, 75 mg/m2): 4 (5.9) no. (%); Adverse event leading to discontinuation (in vivo): 1 (1.5) no. (%); Serious adverse event (in vivo): 28 (41.2) no. (%); patients who discontinued therapy due to intolerable toxicity (in vivo): four
